Assay results reported in patent US20240165062A1, “COMPOSITION FOR INCREASING MUSCLE” (YUKI GOSEI KOGYO CO., LTD., priority 2022, published 2024).

How the values were obtained:
[1] = tested on: MyHCIIa gene in C2C12 cells; details: differentiated C2C12 cells, β-alanine 0.5 mM, 1 mM and 10 mM for 2 days, FIG. 4
Protocol: (§1) FIG. 4 is graphs showing the mRNA expressions of MyHCI (slow muscle)(A), MyHCIIa (fast muscle)(B), MyHCIIx (fast muscle)(C), and MyHCIIb (fast muscle) (D) measured by RT-qPCR in the C2C12 cells wherein the differentiated C2C12 cells were then treated by addition of 0.5, 1, or 10 (mM) of β-alanine for 2 days.
(§2) In this example, β-alanine was added to C2C12 cells and the expression of MyHCI (slow muscle marker), MyHCIIa (fast muscle marker), MyHCIIb (fast muscle marker), and MyHCIIx (fast muscle marker) genes were examined.
(§3) C2C12 cells were seeded in 6-well plates at a concentration of 2.0×10^5 cells/mL, and after 48 hours the medium was replaced with DMEM medium containing 2% Horse Serum (HS) (Thermo Fisher Scientific) to induce differentiation. Further, after 24 hours, the medium was replaced with DMEM medium containing 2% HS. The medium was changed every 2 days thereafter, and further the medium changes and the additions of β-alanine (0.5 mM, 1 mM, or 10 mM) were conducted on the 8th and 9th day after seeding. The cells on 10th day after seeding were used for the experiments. For controls, 1×PBS was added at the same volume as the amount of β-alanine.
(§4) Total RNA preparation and RT-qPCR were performed according to Example 1.

[2] = tested on: MyHCIIx gene in C2C12 cells; details: differentiated C2C12 cells, β-alanine 1 mM and 10 mM for 2 days, FIG. 4
Protocol: as §1, §2, §3, §4

[3] = tested on: MyHCI gene in C2C12 cells; details: differentiated C2C12 cells, β-alanine 0.5 mM, 1 mM and 10 mM for 2 days, FIG. 4
Protocol: as §1, §2, §3, §4

[4] = tested on: MyHCIIb gene in C2C12 cells; details: differentiated C2C12 cells, β-alanine 1 mM and 10 mM for 2 days, FIG. 4
Protocol: as §1, §2, §3, §4

[5] = tested on: MyHCIIa gene in C2C12 cells; details: β-alanine added twice at 24 h interval, vs 1×PBS control, FIG. 1
Protocol: as §2
(§5) High Pure RNA Isolation Kit (Roche, Basel, Switzerland) was used for total RNA preparation. C2C12 cells were seeded at a concentration of 5.0×10^4 cells/mL in 5 mL Dish. After 24 hours of incubation, β-alanine was added. 1×PBS was added to the control cells at the same volume as the added amount of β-alanine. Twenty-four hours after the addition of 3-alanine, sample was secondary added. After 24 hours of incubation, the culture supernatant was aspirated off. After washing the cells twice with 1×PBS, 1×PBS 200 μL/dish and […] of Lysis/-binding buffer included in High Pure RNA Isolation Kit were added to the entire dish, and the total amount was collected in a 1.5-mL tube. The collected samples were suspended using a vortex mixer for 60 seconds. The filter tube and the collection tube in the kit were assembled, the sample solution was added to the filter tube, and centrifuged at 4° C., 9200×g for 15 seconds. The liquid drained into the collection tube was discarded, and the filter tube and collection tube were assembled again. In a 1.5-mL tube, 90 μL of DNase Incubation Buffer per sample and 10 μL of DNase I per sample were mixed. The mixture was added to the filter tubes and incubated at room temperature for 15 minutes. After incubation, Wash buffer I (500 μL) was added to the filter tubes and centrifuged at 4° C., 9200×g for 15 seconds.

[6] = tested on: MyHCIIx gene in C2C12 cells; details: β-alanine added twice at 24 h interval, vs 1×PBS control, FIG. 1
Protocol: as §2, §5

[7] = tested on: MyHCI gene in C2C12 cells; details: β-alanine added twice at 24 h interval, vs 1×PBS control, FIG. 1
Protocol: as §2, §5

[8] = tested on: MyHCIIb gene in C2C12 cells; details: β-alanine added twice at 24 h interval, vs 1×PBS control, FIG. 1
Protocol: as §2, §5

[9] = tested on: MyoD gene in C2C12 cells; details: vs 1×PBS control, FIG. 2
[10] = tested on: C2C12 cells; details: β-alanine 0.5 mM or 1.0 mM every 2 days, 9 days from induction of differentiation, FIG. 3

`NCCC(=O)O` [β-alanine] was tested, and the “MyHCIIa (fast muscle marker) gene expression” value [1] was “concentration-dependent enhancement”, the “MyHCIIx (fast muscle) mRNA expression” value [2] was “significantly increased” and the “MyHCI (slow muscle marker) mRNA expression” value [3] was “significantly increased”. The “MyHCIIb (fast muscle) mRNA expression” value [4] was “significantly increased”, the “expression of the fast muscle marker MyHCIIa” value [5] was “increased” and the “expression of the fast muscle marker MyHCIIx” value [6] was “increased”. For the same compound, the “expression of the slow muscle marker MyHCI” value [7] was “increased”, the “expression of the fast muscle marker MyHCIIb” value [8] was “increased” and the “expression of MyoD, a transcriptional regulator of muscle differentiation” value [9] was “increased”. For the same compound, the “differentiation of myoblasts into myotube cells” value [10] was “promoted”, the “number of myotubular cells” value [10] was “increased” and the “ratio of slow muscle cells (slow muscle area / myotube area)” value [10] was “increased as the amount of β-alanine increased”.
